Broadly, the viability is a per cent measure of how many cells are alive, often set against a control. Usually IC50 stands for the midpoint of a concentration-inhibition curve.

The values below come from paper PMC5469273, “Discovery of Novel Small-Molecule Inhibitors of LIM Domain Kinase for Inhibiting HIV-1” (Journal of Virology, 2017).

The conditions of series [1]: oral gavage 20 mg/kg daily, 7 days.
Series [2] deals with HIV-1(NL4-3). In kind it is cell-based. The settings on record: for Infectivity (percentage of GFP+ cells): 100 μM, pretreated 1 h, HIV-1(NL4-3) 3 h, washed, viable cells only, paired DMSO controls 1.76-3.37%; for X4 HIV infection in screening: at nontoxic dosages, Fig. 1C and 2.
Series [3] in a line: in vitro. The settings on record: human.
Series [4] addresses LIMK1 (Homo sapiens, UniProt P53667). Put plainly: LIMK1 biochemical assay, 10-dose IC50. More on the design: purified from insect cells; His; purchased Reaction Biology Corporation, Malvern, PA; host or cells: insect cells (coexpressed with ROCK1). To be noted: purified LIMK1; 10 μM ATP, 1 μM cofilin; ≥2 in vitro kinase assays; read-out: LIMK1 Biochemical Inhibition IC50. The text has this:
We selected R10015 from the potential LIMK inhibitors for further detailed mechanistic studies. The synthesis, purification, and biochemical characterization of R10015 are described in Materials and Methods below and shown in Fig. 3. We performed a cell-free assay to measure R10015 inhibition of the LIM domain kinase using purified human LIMK1 and its substrate, cofilin. […] We also performed profiling of R10015 against a panel of 62 kinases (Table 2).
Biochemical LIMK1 assays for all inhibitors were carried out by Reaction Biology Corporation, Malvern, PA, and followed the protocols described on its website. […] Reactions were carried out at 10 μM ATP, 1 μM substrate (cofilin), and 50 nM LIMK1 (final concentrations). […] The reagents were as follows: base reaction buffer, 20 mM HEPES (pH 7.5), 10 mM MgCl2, 1 mM EGTA, 0.02% Brij 35, 0.02 mg/ml bovine serum albumin (BSA), 0.1 mM Na3VO4, 2 mM dithiothreitol (DTT), 1% DMSO. No additional cofactors were added to the reaction mixture. The reaction procedures were as follows. (i) The indicated substrate was prepared in freshly made base reaction buffer. (ii) Any required cofactors were delivered to the substrate solution described above. (iii) The indicated kinase was delivered into the substrate solution and gently mixed. (iv) The compounds in DMSO were delivered into the kinase reaction mixture. (v) [^33P]ATP (final specific activity, 0.01 μCi/μl) was delivered into the reaction mixture to initiate the reaction. […] (viii) The filters were washed extensively in 0.1% phosphoric acid.

LIMK1, sequence (P53667 285-638): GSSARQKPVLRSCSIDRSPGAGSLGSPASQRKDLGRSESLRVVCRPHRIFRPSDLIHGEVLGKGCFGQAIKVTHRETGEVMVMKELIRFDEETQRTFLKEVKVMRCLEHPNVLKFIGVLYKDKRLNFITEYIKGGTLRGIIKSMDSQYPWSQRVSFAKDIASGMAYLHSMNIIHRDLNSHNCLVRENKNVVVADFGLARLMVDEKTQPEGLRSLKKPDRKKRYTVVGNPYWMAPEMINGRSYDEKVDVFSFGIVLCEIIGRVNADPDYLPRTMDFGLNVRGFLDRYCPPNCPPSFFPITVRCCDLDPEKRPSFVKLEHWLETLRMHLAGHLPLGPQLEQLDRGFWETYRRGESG

`Cc1c[nH]c2ncnc(-c3ccc(NC(=O)N(CCO)c4ccccc4)cc3)c12` [Compound R7826]: the “body weight over a week compared to PBS control” value in series [1] was “gained weight”. Moreover, the “Infectivity (percentage of GFP+ cells)” value in series [2] (48 h) is 1.02%. In series [2], the “X4 HIV infection in screening” value is reported as “blocked”. In addition, the viability at 100 µM in series [3] was 96.2%.
As for `Cc1c[nH]c2ncnc(N3CCC(c4nc5cc(C#N)ccc5[nH]4)CC3)c12` [Compound R8212], the “Infectivity (percentage of GFP+ cells)” value in series [2] (48 h) is on record as 2.22%. Also, the “X4 HIV infection in screening” value in series [2] is “blocked”. Moreover, the IC50 in series [4] was 44 ± 6 nM. The same molecule had a viability at 100 µM in series [3] of 93.3%.
On the same counts, the results for `CC1(c2nc3ccc(C(=O)NC4CCC4)cc3[nH]2)CCN(c2ncnc3[nH]ccc23)CC1` [Compound R8482] are 1.10%, “blocked”, 41 ± 4 nM and 93.4%.
For `Cc1c[nH]c2ncnc(-c3ccc(-c4nc5ccc(C(=O)NC6CCCC6)cc5[nH]4)c(F)c3)c12` [Compound R8584], the “Infectivity (percentage of GFP+ cells)” value in series [2] (48 h) worked out at 0.65%. Moreover, the “X4 HIV infection in screening” value in series [2] is given as “blocked”. Moreover, in series [4], the IC50 was 50 ± 7 nM. Also, in series [3], the viability at 100 µM amounted to 93.7%.
On the same counts, the results for `CC(C)NC(=O)c1ccc2[nH]c(N3CCN(c4ncnc5[nH]cc(Cl)c45)C[C@@H]3C)nc2c1` [Compound R10543] are 0.75%, “blocked”, 5 ± 2 nM and 90.1%.
For `CCOC(=O)c1ccc2nc(N3CCN(c4ncnc5[nH]cc(Cl)c45)[C@@H](C)C3)[nH]c2c1` [Compound R10659], the “Infectivity (percentage of GFP+ cells)” value in series [2] (48 h) was 1.30%. Further, the “X4 HIV infection in screening” value in series [2] is “blocked”. Further, in series [3], the viability at 100 µM came out at 89.8%.
`Cc1cc(C#N)cc(C)c1Oc1nc(Nc2ccc(C#N)cc2)nc(N)c1Br` [Etravirine, etravirine, reference compound]: in series [2] (etravirine 100 nM, HIV(NL4-3), 48 h, Fig. 1B), the “HIV-dependent GFP expression (GFP+ cells)” value is listed as 0.01%.
